Patent publication US12077503B2, “Substituted cyclic amides and their use as herbicides” (FMC CORPORATION, priority 2015, dated 2024)

Experiments:
Format in all cases: in vivo
[1] = tested on: ragweed (common ragweed, Ambrosia elatior); assay: Test A preemergence; conditions: Ambrosia artemisiifolia, pre-emergence, 240 h; for pest or weed control at 125 g/ha: 125 g ai/ha, preemergence, 0 to 100 scale where 0 is no effect and 100 is complete control, read-out: Ragweed plant response rating; for pest or weed control at 500 g/ha: 500 g ai/ha, Preemergence, visual injury vs untreated controls after approximately 10 d, read-out: Ragweed plant response rating (0 to 100 scale where 0 is no effect and 100 is complete control)
Method in brief: (§1)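 Seeds sprayed preemergence with a directed soil spray, or plants at 2 to 10 cm height and one- to two-leaf stage sprayed postemergence, with test chemicals in a non-phytotoxic solvent mixture containing surfactant, in loam soil–sand blend. Injury rated visually against untreated controls after about 10 d in greenhouse, 0 (no effect) to 100 (complete control).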

[2] = tested on: giant foxtail (Setaria faberii); assay: Test A preemergence; conditions: Setaria faberi, pre-emergence, 240 h; for pest or weed control at 125 g/ha: 125 g ai/ha, preemergence, 0 to 100 scale where 0 is no effect and 100 is complete control, read-out: Foxtail, Giant plant response rating; for pest or weed control at 500 g/ha: 500 g ai/ha, Preemergence, visual injury vs untreated controls after approximately 10 d, read-out: Foxtail, Giant plant response rating (0 to 100 scale where 0 is no effect and 100 is complete control)
Method in brief: as §1

[3] = tested on: barnyardgrass (Echinochloa crus-galli); assay: Test A preemergence; conditions: Echinochloa crus-galli, pre-emergence, 240 h; for pest or weed control at 125 g/ha: 125 g ai/ha, preemergence, 0 to 100 scale where 0 is no effect and 100 is complete control, read-out: Barnyardgrass plant response rating; for pest or weed control at 500 g/ha: 500 g ai/ha, Preemergence, visual injury vs untreated controls after approximately 10 d, read-out: Barnyardgrass plant response rating (0 to 100 scale where 0 is no effect and 100 is complete control)
Method in brief: as §1

[4] = tested on: pigweed (Amaranthus retroflexus); assay: Test A preemergence; conditions: Amaranthus retroflexus, pre-emergence, 240 h; for pest or weed control at 125 g/ha: 125 g ai/ha, preemergence, 0 to 100 scale where 0 is no effect and 100 is complete control, read-out: Pigweed plant response rating; for pest or weed control at 500 g/ha: 500 g ai/ha, Preemergence, visual injury vs untreated controls after approximately 10 d, read-out: Pigweed plant response rating (0 to 100 scale where 0 is no effect and 100 is complete control)
Kochia (Kochia scoparia) [5] = assay: Test A preemergence; conditions: Bassia scoparia, pre-emergence, 240 h; for pest or weed control at 125 g/ha: 125 g ai/ha, preemergence, 0 to 100 scale where 0 is no effect and 100 is complete control, read-out: Kochia plant response rating; for pest or weed control at 500 g/ha: 500 g ai/ha, Preemergence, visual injury vs untreated controls after approximately 10 d, read-out: Kochia plant response rating (0 to 100 scale where 0 is no effect and 100 is complete control)
Method in brief: as §1

[6] = tested on: ryegrass, Italian (Italian ryegrass, Lolium multiflorum); assay: Test A preemergence; conditions: Lolium multiflorum, pre-emergence, 240 h; for pest or weed control at 125 g/ha: 125 g ai/ha, preemergence, 0 to 100 scale where 0 is no effect and 100 is complete control, read-out: Ryegrass, Italian plant response rating; for pest or weed control at 500 g/ha: 500 g ai/ha, Preemergence, visual injury vs untreated controls after approximately 10 d, read-out: Ryegrass, Italian plant response rating (0 to 100 scale where 0 is no effect and 100 is complete control)
Method in brief: as §1

[7] = tested on: blackgrass (Alopecurus myosuroides); assay: Test A postemergence; conditions: Alopecurus myosuroides, post-emergence, 240 h, 125 g ai/ha, postemergence, visual injury rating after approximately 10 d; read-out: Blackgrass plant response rating (0 to 100 scale, 0 no effect, 100 complete control)
Method in brief: as §1

[8] = tested on: ragweed (common ragweed, Ambrosia elatior); assay: Test A postemergence; conditions: Ambrosia artemisiifolia, post-emergence, 240 h, 125 g ai/ha, postemergence, visual injury rating after approximately 10 d; read-out: Ragweed plant response rating (0 to 100 scale, 0 no effect, 100 complete control)
Method in brief: as §1

[9] = tested on: giant foxtail (Setaria faberii); assay: Test A postemergence; conditions: Setaria faberi, post-emergence, 240 h, 125 g ai/ha, postemergence, visual injury rating after approximately 10 d; read-out: Foxtail, Giant plant response rating (0 to 100 scale, 0 no effect, 100 complete control)
Method in brief: as §1

[10] = tested on: barnyardgrass (Echinochloa crus-galli); assay: Test A postemergence; conditions: Echinochloa crus-galli, post-emergence, 240 h, 125 g ai/ha, postemergence, visual injury rating after approximately 10 d; read-out: Barnyardgrass plant response rating (0 to 100 scale, 0 no effect, 100 complete control)
Method in brief: as §1

[11] = tested on: wheat (Triticum aestivum); assay: Test A postemergence; conditions: Triticum aestivum, post-emergence, 240 h, 125 g ai/ha, postemergence, visual injury rating after approximately 10 d; read-out: Wheat plant response rating (0 to 100 scale, 0 no effect, 100 complete control)
Method in brief: as §1

[12] = tested on: pigweed (Amaranthus retroflexus); assay: Test A postemergence; conditions: Amaranthus retroflexus, post-emergence, 240 h, 125 g ai/ha, postemergence, visual injury rating after approximately 10 d; read-out: Pigweed plant response rating (0 to 100 scale, 0 no effect, 100 complete control)
Method in brief: as §1

corn (Zea mays) = assay: Test A postemergence; conditions: Zea mays, post-emergence, 240 h, 125 g ai/ha, postemergence, visual injury rating after approximately 10 d; read-out: Corn plant response rating (0 to 100 scale, 0 no effect, 100 complete control)
Method in brief: as §1

Kochia (Kochia scoparia) [13] = assay: Test A postemergence; conditions: Bassia scoparia, post-emergence, 240 h, 125 g ai/ha, postemergence, visual injury rating after approximately 10 d; read-out: Kochia plant response rating (0 to 100 scale, 0 no effect, 100 complete control)
Method in brief: as §1

[14] = tested on: ryegrass, Italian (Italian ryegrass, Lolium multiflorum); assay: Test A postemergence; conditions: Lolium multiflorum, post-emergence, 240 h, 125 g ai/ha, postemergence, visual injury rating after approximately 10 d; read-out: Ryegrass, Italian plant response rating (0 to 100 scale, 0 no effect, 100 complete control)
Method in brief: as §1

[15] = tested on: Galium (catchweed bedstraw, Galium aparine); assay: Test A postemergence; conditions: Galium, post-emergence, 240 h, 125 g ai/ha, postemergence, visual injury rating after approximately 10 d; read-out: Galium plant response rating (0 to 100 scale, 0 no effect, 100 complete control)
Method in brief: as §1

Row | SMILES | pest or weed control at 125 g/ha [1] | pest or weed control at 500 g/ha [1] | pest or weed control at 125 g/ha [2] | pest or weed control at 500 g/ha [2] | pest or weed control at 125 g/ha [3] | pest or weed control at 500 g/ha [3] | pest or weed control at 125 g/ha [4] | pest or weed control at 500 g/ha [4] | pest or weed control at 125 g/ha (Kochia (Kochia scoparia) [5]) | pest or weed control at 500 g/ha (Kochia (Kochia scoparia) [5]) | pest or weed control at 125 g/ha [6] | pest or weed control at 500 g/ha [6] | pest or weed control at 125 g/ha [7] | pest or weed control at 125 g/ha [8] | pest or weed control at 125 g/ha [9] | pest or weed control at 125 g/ha [10] | plant injury at 125 g/ha [11] | pest or weed control at 125 g/ha [12] | plant injury at 125 g/ha (corn (Zea mays)) | pest or weed control at 125 g/ha (Kochia (Kochia scoparia) [13]) | also measured
1 | CN1C[C@H](c2cc(F)c(C(F)(F)F)c(F)c2)[C@@H](C(=O)Nc2cccc(F)c2F)C1=O [Compound 898] | 60% | 60% | 90% | 90% | 90% | 90% | 60% | 80% | 70% | 90% | 40% | 70% | 50% | 0% | 80% | 80% | 40% | 40% | 70% | 0% | pest or weed control at 125 g/ha [14]: 50%; pest or weed control at 125 g/ha [15]: 0%
2 | Cc1cc(F)ccc1NC(=O)[C@H]1C(=O)NC[C@@H]1c1cccc(C(F)(F)F)c1 [Compound 828] | 0% | 0% | 90% | 100% | 70% | 90% | 0% | 0% | 40% | 40% | 50% | 70% | 50% | 0% | 90% | 70% | 20% | 0% | 40% | 0% | pest or weed control at 125 g/ha [14]: 20%; pest or weed control at 125 g/ha [15]: 30%
3 | O=C1NCC(c2cccc(I)c2)C1C(=O)Nc1ccccc1F (stereo not drawn) [Compound 845] | 0% | 0% | 80% | 90% | 90% | 90% | 0% | 0% | 40% | 90% | 0% | 30% | 40% | 0% | 90% | 80% | 0% | 0% | 30% | 0% | pest or weed control at 125 g/ha [14]: 30%; pest or weed control at 125 g/ha [15]: 20%
